Results reported in ChEMBL document CHEMBL3627608, “Crystal structures of human RIP2 kinase catalytic domain complexed with ATP-competitive inhibitors: Foundations for understanding inhibitor selectivity” (Bioorg Med Chem, 2015).

Columns and labels:
[1] = biological target: G protein-coupled receptor kinase 5 (Homo sapiens) (UniProt P34947); assay: Inhibition of GRK5 (unknown origin) at 10 uM after 120 mins P33 radiolabeled kinase activity assay
[2] = biological target: SRSF protein kinase 2 (Homo sapiens) (UniProt P78362); assay: Inhibition of SRPK2 (unknown origin) at 10 uM after 120 mins P33 radiolabeled kinase activity assay
Sequence of SRSF protein kinase 2 (Homo sapiens) (P78362 whole entry, looked up): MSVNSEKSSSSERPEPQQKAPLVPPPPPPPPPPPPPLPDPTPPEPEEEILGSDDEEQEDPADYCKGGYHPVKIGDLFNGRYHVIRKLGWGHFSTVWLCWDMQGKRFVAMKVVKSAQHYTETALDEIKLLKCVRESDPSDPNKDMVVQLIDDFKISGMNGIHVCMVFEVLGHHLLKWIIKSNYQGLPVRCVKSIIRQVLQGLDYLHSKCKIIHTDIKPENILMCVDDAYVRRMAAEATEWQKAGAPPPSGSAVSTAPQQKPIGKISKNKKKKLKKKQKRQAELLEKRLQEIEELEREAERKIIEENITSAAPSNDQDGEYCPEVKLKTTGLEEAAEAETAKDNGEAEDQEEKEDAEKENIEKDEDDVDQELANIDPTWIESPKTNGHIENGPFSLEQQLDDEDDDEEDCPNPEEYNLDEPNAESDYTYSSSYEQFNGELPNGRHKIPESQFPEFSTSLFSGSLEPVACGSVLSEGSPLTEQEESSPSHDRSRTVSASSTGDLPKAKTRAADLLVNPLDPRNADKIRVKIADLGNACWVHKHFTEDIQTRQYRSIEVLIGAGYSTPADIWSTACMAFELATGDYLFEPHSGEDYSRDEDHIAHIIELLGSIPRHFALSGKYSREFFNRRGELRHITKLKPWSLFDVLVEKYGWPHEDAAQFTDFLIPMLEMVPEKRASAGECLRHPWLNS

[3] = biological target: T1, Serine/threonine-protein kinase LATS1 (Homo sapiens) (UniProt O95835); assay: Inhibition of LATS (unknown origin) at 10 uM after 120 mins P33 radiolabeled kinase activity assay
T1 sequence (whole entry): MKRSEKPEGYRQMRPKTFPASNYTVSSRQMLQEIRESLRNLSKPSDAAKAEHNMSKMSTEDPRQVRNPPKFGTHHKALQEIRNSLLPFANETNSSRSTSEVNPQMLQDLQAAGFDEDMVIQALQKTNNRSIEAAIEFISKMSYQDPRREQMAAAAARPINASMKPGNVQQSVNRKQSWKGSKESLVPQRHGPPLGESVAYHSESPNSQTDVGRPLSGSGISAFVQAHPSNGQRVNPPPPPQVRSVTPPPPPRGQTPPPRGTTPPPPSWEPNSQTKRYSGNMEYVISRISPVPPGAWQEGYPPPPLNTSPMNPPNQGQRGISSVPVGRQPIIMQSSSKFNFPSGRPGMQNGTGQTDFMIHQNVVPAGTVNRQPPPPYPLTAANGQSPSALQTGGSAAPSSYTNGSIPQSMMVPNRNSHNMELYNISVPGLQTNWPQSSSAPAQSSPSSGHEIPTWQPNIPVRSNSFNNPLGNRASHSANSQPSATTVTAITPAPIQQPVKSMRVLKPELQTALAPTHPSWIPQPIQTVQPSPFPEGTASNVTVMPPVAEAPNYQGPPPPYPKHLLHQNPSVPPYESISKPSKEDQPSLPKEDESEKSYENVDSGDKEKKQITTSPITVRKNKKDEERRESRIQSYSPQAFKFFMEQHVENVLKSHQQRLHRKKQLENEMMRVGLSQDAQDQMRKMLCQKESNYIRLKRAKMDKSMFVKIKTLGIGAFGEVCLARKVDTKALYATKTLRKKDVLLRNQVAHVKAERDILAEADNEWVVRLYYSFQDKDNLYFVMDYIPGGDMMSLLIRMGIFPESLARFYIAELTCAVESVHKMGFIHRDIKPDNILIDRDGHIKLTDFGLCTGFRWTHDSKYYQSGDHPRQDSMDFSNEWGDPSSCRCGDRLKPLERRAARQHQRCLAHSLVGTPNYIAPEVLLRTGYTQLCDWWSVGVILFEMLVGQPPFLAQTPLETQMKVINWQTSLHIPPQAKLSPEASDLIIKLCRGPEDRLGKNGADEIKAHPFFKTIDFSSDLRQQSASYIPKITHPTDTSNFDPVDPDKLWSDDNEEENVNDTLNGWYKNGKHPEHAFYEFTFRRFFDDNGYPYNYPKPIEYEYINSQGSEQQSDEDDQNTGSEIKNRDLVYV

[4] = biological target: T2, Serine/threonine-protein kinase D1 (Homo sapiens) (UniProt Q15139); assay: Inhibition of PKCmu (unknown origin) at 10 uM after 120 mins P33 radiolabeled kinase activity assay
T2 sequence (whole entry): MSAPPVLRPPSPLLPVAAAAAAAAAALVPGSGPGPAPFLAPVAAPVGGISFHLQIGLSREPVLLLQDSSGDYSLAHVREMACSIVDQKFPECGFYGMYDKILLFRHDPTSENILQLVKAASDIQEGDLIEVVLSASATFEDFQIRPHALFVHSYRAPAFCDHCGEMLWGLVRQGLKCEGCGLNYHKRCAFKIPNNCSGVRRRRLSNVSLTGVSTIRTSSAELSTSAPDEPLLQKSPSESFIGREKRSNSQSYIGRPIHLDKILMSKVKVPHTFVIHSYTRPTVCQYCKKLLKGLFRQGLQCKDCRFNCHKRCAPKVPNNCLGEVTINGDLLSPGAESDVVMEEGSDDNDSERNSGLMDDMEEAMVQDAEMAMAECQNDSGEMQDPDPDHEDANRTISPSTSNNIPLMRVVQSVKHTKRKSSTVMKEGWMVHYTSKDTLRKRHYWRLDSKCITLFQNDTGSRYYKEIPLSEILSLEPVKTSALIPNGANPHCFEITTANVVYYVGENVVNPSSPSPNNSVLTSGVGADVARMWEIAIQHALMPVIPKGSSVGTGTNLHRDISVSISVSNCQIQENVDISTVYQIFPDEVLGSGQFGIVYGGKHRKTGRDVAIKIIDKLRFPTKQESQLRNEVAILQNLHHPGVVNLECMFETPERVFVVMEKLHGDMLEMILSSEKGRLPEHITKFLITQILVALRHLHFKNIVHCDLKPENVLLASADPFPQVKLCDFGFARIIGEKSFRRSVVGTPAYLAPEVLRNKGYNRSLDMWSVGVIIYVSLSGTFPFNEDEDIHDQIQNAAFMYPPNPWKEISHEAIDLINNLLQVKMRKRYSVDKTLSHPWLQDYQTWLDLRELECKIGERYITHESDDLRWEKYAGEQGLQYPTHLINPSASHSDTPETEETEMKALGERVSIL

[5] = biological target: T3, Tyrosine-protein kinase ITK/TSK (Homo sapiens) (UniProt Q08881); assay: Inhibition of ITK (unknown origin) at 10 uM after 120 mins P33 radiolabeled kinase activity assay
T3 sequence (whole entry): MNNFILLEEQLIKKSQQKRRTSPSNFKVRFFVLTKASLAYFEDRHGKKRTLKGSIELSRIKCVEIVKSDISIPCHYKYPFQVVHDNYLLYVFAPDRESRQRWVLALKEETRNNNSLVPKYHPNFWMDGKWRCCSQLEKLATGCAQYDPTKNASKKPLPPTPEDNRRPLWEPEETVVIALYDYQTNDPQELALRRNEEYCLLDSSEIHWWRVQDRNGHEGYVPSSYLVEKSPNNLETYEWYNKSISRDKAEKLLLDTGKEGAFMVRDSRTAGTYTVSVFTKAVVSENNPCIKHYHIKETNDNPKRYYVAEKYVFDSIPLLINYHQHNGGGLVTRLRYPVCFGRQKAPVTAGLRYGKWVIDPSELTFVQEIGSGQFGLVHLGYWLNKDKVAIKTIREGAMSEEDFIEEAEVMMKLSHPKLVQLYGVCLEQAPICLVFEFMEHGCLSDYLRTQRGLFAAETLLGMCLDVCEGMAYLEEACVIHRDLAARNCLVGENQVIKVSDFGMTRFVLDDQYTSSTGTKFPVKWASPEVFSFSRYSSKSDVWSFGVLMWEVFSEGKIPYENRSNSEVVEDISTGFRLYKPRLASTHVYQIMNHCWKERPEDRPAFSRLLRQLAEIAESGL

[6] = organism: Homo sapiens; assay: Inhibition of PKG2 (unknown origin) at 10 uM after 120 mins P33 radiolabeled kinase activity assay
[7] = biological target: Receptor tyrosine-protein kinase erbB-4 (Homo sapiens) (UniProt Q15303); assay: Inhibition of ERBB4 (unknown origin) at 10 uM after 120 mins P33 radiolabeled kinase activity assay
Sequence of Receptor tyrosine-protein kinase erbB-4 (Homo sapiens) (Q15303 whole entry): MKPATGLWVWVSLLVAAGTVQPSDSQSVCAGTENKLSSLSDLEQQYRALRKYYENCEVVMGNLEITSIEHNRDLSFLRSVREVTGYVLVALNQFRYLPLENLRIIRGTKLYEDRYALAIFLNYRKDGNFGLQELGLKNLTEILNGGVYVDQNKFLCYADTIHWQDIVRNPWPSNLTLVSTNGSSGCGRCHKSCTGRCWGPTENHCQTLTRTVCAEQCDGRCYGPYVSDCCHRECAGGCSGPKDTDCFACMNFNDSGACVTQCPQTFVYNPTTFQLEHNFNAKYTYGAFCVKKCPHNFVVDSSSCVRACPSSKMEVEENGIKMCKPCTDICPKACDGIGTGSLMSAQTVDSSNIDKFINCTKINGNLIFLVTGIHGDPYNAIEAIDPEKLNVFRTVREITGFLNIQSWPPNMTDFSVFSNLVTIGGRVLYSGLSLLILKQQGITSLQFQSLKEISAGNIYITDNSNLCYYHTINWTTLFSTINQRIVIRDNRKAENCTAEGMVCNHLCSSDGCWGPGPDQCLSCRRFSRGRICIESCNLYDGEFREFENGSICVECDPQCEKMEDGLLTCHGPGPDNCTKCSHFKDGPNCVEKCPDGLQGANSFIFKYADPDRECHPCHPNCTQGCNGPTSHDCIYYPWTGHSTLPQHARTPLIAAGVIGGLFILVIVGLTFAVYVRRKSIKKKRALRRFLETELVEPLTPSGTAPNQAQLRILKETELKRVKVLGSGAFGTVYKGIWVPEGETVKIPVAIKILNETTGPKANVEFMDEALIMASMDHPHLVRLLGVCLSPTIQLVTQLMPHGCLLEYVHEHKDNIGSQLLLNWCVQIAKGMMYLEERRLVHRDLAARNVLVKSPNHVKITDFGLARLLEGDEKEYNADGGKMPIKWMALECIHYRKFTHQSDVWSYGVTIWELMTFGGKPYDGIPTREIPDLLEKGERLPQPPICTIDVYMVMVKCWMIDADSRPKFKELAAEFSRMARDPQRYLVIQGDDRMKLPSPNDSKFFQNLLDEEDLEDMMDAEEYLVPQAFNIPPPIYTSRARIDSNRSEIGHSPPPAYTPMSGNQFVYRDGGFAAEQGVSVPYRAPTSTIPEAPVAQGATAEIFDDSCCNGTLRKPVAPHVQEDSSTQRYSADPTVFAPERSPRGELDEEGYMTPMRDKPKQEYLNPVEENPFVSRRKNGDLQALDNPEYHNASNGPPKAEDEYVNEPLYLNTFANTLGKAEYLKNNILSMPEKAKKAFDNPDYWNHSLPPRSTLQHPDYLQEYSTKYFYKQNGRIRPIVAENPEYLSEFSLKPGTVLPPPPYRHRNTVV

Sequence of G protein-coupled receptor kinase 5 (Homo sapiens) (P34947 whole entry, looked up): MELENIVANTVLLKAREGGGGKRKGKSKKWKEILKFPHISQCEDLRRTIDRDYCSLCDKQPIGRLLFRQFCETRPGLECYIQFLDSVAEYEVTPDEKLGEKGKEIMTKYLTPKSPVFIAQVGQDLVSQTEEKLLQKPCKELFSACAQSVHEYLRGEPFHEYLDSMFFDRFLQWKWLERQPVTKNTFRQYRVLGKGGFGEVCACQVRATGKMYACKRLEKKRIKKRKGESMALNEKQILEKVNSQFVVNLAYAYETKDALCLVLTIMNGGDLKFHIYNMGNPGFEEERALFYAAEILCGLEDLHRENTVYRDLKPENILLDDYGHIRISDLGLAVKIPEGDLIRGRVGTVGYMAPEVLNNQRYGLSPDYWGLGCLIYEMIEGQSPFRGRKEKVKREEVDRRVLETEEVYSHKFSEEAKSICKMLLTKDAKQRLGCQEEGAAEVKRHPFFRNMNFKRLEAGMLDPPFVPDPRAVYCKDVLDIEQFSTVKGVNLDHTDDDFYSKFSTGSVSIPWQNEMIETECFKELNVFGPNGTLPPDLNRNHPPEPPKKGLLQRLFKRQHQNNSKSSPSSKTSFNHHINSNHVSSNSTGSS

COCCNC(=O)c1ccc2c(c1)nc(-c1cnc(-c3ccc(Cl)cc3)[nH]1)n2CCOC
inhibition [1]: -6.1% | inhibition [2]: 7.04% | inhibition [3]: 3.53% | inhibition [4]: 12.1% | inhibition [5]: 15.1% | inhibition [6]: -5.6% | inhibition [7]: 1.69%

CS(=O)(=O)c1cccc(Nc2nccc(-c3sc(N4CCOCC4)nc3-c3cccc(NS(=O)(=O)c4c(F)cccc4F)c3)n2)c1
inhibition [1]: -3.67% | inhibition [2]: 17.7% | inhibition [3]: 11% | inhibition [4]: 100% | inhibition [5]: 96.8% | inhibition [6]: 8.73% | inhibition [7]: 98.5%

CC(C)(C)c1cc(NC(=O)Nc2ccc(Oc3ccncc3)cc2)no1
inhibition [1]: -7.31% | inhibition [2]: 18% | inhibition [3]: 9.91% | inhibition [4]: 19.5% | inhibition [5]: 15.4% | inhibition [6]: 6.69% | inhibition [7]: -3.92%
